Reference: patent US10954269B2, “Anti-inflammatory tripeptides” (Dr. August Wolff Gmbh & Co. KG Arzneimittel, priority 2013, dated 2021)

Legend:
primary human T-cells = test: Cytokine secretion on protein level in activated primary human T-cells (13-plex FACS / Luminex, supernatant); assay type: cell-based; conditions: 10^−9M
How it was run: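 Cytokine protein in supernatant is read by multiplex FACS or Luminex. Tripeptide-treated HaCaT cells or blood-derived human T-cells are stimulated beforehand with PMA/Ionomycin or IFN-γ. The most relevant analytes are IL-1, IL-2, IL-6, IL-12p70, IL-17, IFN-γ and TNF-α, sampled 48 h and 72 h after stimulation.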

[1] = tested on: human keratinocyte cell line (HaCaT); test: Cytokine secretion on protein level in activated human keratinocyte cell line HaCaT (13-plex FACS / Luminex, supernatant); assay type: cell-based; conditions: for IL-1 cytokine concentration / IL-2 cytokine concentration / IL-4 cytokine concentration / IL-5 cytokine concentration / IL-6 cytokine concentration / IL-9 cytokine concentration / IL-10 cytokine concentration / IL-13 cytokine concentration / IL-17 cytokine concentration / TNF-α cytokine concentration / IL-12p70 cytokine concentration / IL-22 cytokine concentration / IFN-γ cytokine concentration: 10^−9M; for IL-12p70 cytokine concentration / IL-22 cytokine concentration: excluded from the final assessment
How it was run: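 First, T-cells are isolated from healthy donors' blood. Next, they and HaCaT keratinocytes are activated for 48 h with PMA/Ionomycin or IFN-γ in the presence of tripeptides. Finally, secreted cytokines are quantified in supernatants by 13-plex FACS at 48 and 72 h.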

primary murine T-cells = test: Cytokine secretion on protein level in activated primary murine T-cells (13-plex FACS / Luminex, supernatant); assay type: cell-based, C57BL/6 mice; conditions: 10^−9M
How it was run: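 T-cells from secondary lymphatic organs of naïve C57BL/6 mice, stimulated with PMA/Ionomycin or IFN-γ; supernatant cytokines measured by 13-plex FACS 48 h and 72 h after stimulation. In another run, PMA/Ionomycin-stimulated cells received compounds at 10^−7, 10^−9 and 10^−11 M, with IFN-γ, IL-17 and IL-10 measured by Luminex.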

[2] = primary human T-cells stimulated with IFN-γ
[3] = primary human T-cells stimulated with PBS
[4] = primary human T-cells stimulated with PMA/Ionomycin
[5] = HaCaT stimulated with PMA/Ionomycin
[6] = primary murine T-cells stimulated with IFN-γ
[7] = primary murine T-cells stimulated with PBS
[8] = primary murine T-cells stimulated with PMA/Ionomycin
[9] = primary murine T-cells stimulated with PMA/Ionomycin, 1:10 dilution of the supernatants

Substance: H-(L)-Lys-(D)-Pro-N^α-methyl-(L)-Thr-OH [Example 2]
- IL-1 cytokine concentration (primary human T-cells; [2]): 314.88 pg/mL
- IL-2 cytokine concentration (primary human T-cells; [2]): 740.3 pg/mL
- IL-4 cytokine concentration (primary human T-cells; [2]): 116.26 pg/mL
- IL-5 cytokine concentration (primary human T-cells; [2]): 177.72 pg/mL
- IL-6 cytokine concentration (primary human T-cells; [2]): 97.68 pg/mL
- IL-9 cytokine concentration (primary human T-cells; [2]): 106.37 pg/mL
- IL-10 cytokine concentration (primary human T-cells; [2]): 146.79 pg/mL
- IL-12p70 cytokine concentration (primary human T-cells; [2]): 804.93 pg/mL
- IL-13 cytokine concentration (primary human T-cells; [2]): 97.39 pg/mL
- IL-17 cytokine concentration (primary human T-cells; [2]): 168.9 pg/mL
- IL-22 cytokine concentration (primary human T-cells; [2]): 21970.6 pg/mL
- TNF-α cytokine concentration (primary human T-cells; [2]): 188.29 pg/mL
- IFN-γ cytokine concentration (primary human T-cells; [3]): 0 pg/mL
- IL-1 cytokine concentration (primary human T-cells; [3]): 305.62 pg/mL
- IL-2 cytokine concentration (primary human T-cells; [3]): 985.16 pg/mL
- IL-4 cytokine concentration (primary human T-cells; [3]): 151.33 pg/mL
- IL-5 cytokine concentration (primary human T-cells; [3]): 310.87 pg/mL
- IL-6 cytokine concentration (primary human T-cells; [3]): 84.38 pg/mL
- IL-9 cytokine concentration (primary human T-cells; [3]): 116.55 pg/mL
- IL-10 cytokine concentration (primary human T-cells; [3]): 253.29 pg/mL
- IL-12p70 cytokine concentration (primary human T-cells; [3]): 226.23 pg/mL
- IL-13 cytokine concentration (primary human T-cells; [3]): 90.3 pg/mL
- IL-17 cytokine concentration (primary human T-cells; [3]): 238.4 pg/mL
- IL-22 cytokine concentration (primary human T-cells; [3]): 2242.06 pg/mL
- TNF-α cytokine concentration (primary human T-cells; [3]): 211.85 pg/mL
- IFN-γ cytokine concentration (primary human T-cells; [4]): 2726.77 pg/mL
- IL-1 cytokine concentration (primary human T-cells; [4]): 69689.2 pg/mL
- IL-2 cytokine concentration (primary human T-cells; [4]): 12000 pg/mL
- IL-4 cytokine concentration (primary human T-cells; [4]): 239.02 pg/mL
- IL-5 cytokine concentration (primary human T-cells; [4]): 325.76 pg/mL
- IL-6 cytokine concentration (primary human T-cells; [4]): 1533.99 pg/mL
- IL-9 cytokine concentration (primary human T-cells; [4]): 142.93 pg/mL
- IL-10 cytokine concentration (primary human T-cells; [4]): 3938.15 pg/mL
- IL-12p70 cytokine concentration (primary human T-cells; [4]): 1413.17 pg/mL
- IL-13 cytokine concentration (primary human T-cells; [4]): 760.63 pg/mL
- IL-17 cytokine concentration (primary human T-cells; [4]): 3476.92 pg/mL
- IL-22 cytokine concentration (primary human T-cells; [4]): 24128.2 pg/mL
- TNF-α cytokine concentration (primary human T-cells; [4]): 3600 pg/mL
- IL-1 cytokine concentration ([1]; HaCaT stimulated with IFN-γ): 265.46 pg/mL
- IL-2 cytokine concentration ([1]; HaCaT stimulated with IFN-γ): 96.34 pg/mL
- IL-4 cytokine concentration ([1]; HaCaT stimulated with IFN-γ): 71.76 pg/mL
- IL-5 cytokine concentration ([1]; HaCaT stimulated with IFN-γ): 109.73 pg/mL
- IL-6 cytokine concentration ([1]; HaCaT stimulated with IFN-γ): 641.89 pg/mL
- IL-9 cytokine concentration ([1]; HaCaT stimulated with IFN-γ): 104.08 pg/mL
- IL-10 cytokine concentration ([1]; HaCaT stimulated with IFN-γ): 129.2 pg/mL
- IL-13 cytokine concentration ([1]; HaCaT stimulated with IFN-γ): 61.18 pg/mL
- IL-17 cytokine concentration ([1]; HaCaT stimulated with IFN-γ): 629.16 pg/mL
- TNF-α cytokine concentration ([1]; HaCaT stimulated with IFN-γ): 79.97 pg/mL
- IL-12p70 cytokine concentration ([1]; HaCaT stimulated with IFN-γ): 1904.09 pg/mL
- IL-22 cytokine concentration ([1]; HaCaT stimulated with IFN-γ): 0 pg/mL
- IFN-γ cytokine concentration ([1]; HaCaT stimulated with PBS): 397.45 pg/mL
- IL-1 cytokine concentration ([1]; HaCaT stimulated with PBS): 251.25 pg/mL
- IL-2 cytokine concentration ([1]; HaCaT stimulated with PBS): 177.85 pg/mL
- IL-4 cytokine concentration ([1]; HaCaT stimulated with PBS): 90.8 pg/mL
- IL-5 cytokine concentration ([1]; HaCaT stimulated with PBS): 189.12 pg/mL
- IL-6 cytokine concentration ([1]; HaCaT stimulated with PBS): 75.53 pg/mL
- IL-9 cytokine concentration ([1]; HaCaT stimulated with PBS): 139.65 pg/mL
- IL-10 cytokine concentration ([1]; HaCaT stimulated with PBS): 151.26 pg/mL
- IL-13 cytokine concentration ([1]; HaCaT stimulated with PBS): 69.36 pg/mL
- IL-17 cytokine concentration ([1]; HaCaT stimulated with PBS): 569.9 pg/mL
- TNF-α cytokine concentration ([1]; HaCaT stimulated with PBS): 84.84 pg/mL
- IL-12p70 cytokine concentration ([1]; HaCaT stimulated with PBS): 1864.02 pg/mL
- IL-22 cytokine concentration ([1]; HaCaT stimulated with PBS): 14446.9 pg/mL
- IFN-γ cytokine concentration [1, 5]: 704.33 pg/mL
- IL-1 cytokine concentration [1, 5]: 204.23 pg/mL
- IL-2 cytokine concentration [1, 5]: 130.08 pg/mL
- IL-4 cytokine concentration [1, 5]: 58.48 pg/mL
- IL-5 cytokine concentration [1, 5]: 129.65 pg/mL
- IL-6 cytokine concentration [1, 5]: 129.99 pg/mL
- IL-9 cytokine concentration [1, 5]: 104.14 pg/mL
- IL-10 cytokine concentration [1, 5]: 97.55 pg/mL
- IL-13 cytokine concentration [1, 5]: 69.36 pg/mL
- IL-17 cytokine concentration [1, 5]: 369.01 pg/mL
- TNF-α cytokine concentration [1, 5]: 62.15 pg/mL
- IL-12p70 cytokine concentration [1, 5]: 0 pg/mL
- IL-22 cytokine concentration [1, 5]: 14806.4 pg/mL
- secretion / expression of pro-inflammatory cytokines (supernatant) ([1]; activated human keratinocytes): decreased secretion
- IL-1 cytokine concentration (primary murine T-cells; [6]): 22.78 pg/mL
- IL-2 cytokine concentration (primary murine T-cells; [6]): 0 pg/mL
- IL-4 cytokine concentration (primary murine T-cells; [6]): 0 pg/mL
- IL-5 cytokine concentration (primary murine T-cells; [6]): 72.11 pg/mL
- IL-6 cytokine concentration (primary murine T-cells; [6]): 23.14 pg/mL
- IL-10 cytokine concentration (primary murine T-cells; [6]): 72.95 pg/mL
- IL-13 cytokine concentration (primary murine T-cells; [6]): 0 pg/mL
- IL-17 cytokine concentration (primary murine T-cells; [6]): 0 pg/mL
- IL-21 cytokine concentration (primary murine T-cells; [6]): 0 pg/mL
- IL-22 cytokine concentration (primary murine T-cells; [6]): 8.52 pg/mL
- IL-27 cytokine concentration (primary murine T-cells; [6]): 1234.48 pg/mL
- TNF-α cytokine concentration (primary murine T-cells; [6]): 0 pg/mL
- IFN-γ cytokine concentration (primary murine T-cells; [7]): 2375.02 pg/mL
- IL-1 cytokine concentration (primary murine T-cells; [7]): 36.6 pg/mL
- IL-2 cytokine concentration (primary murine T-cells; [7]): 138.15 pg/mL
- IL-4 cytokine concentration (primary murine T-cells; [7]): 0 pg/mL
- IL-5 cytokine concentration (primary murine T-cells; [7]): 45.71 pg/mL
- IL-6 cytokine concentration (primary murine T-cells; [7]): 0 pg/mL
- IL-10 cytokine concentration (primary murine T-cells; [7]): 0 pg/mL
- IL-13 cytokine concentration (primary murine T-cells; [7]): 0 pg/mL
- IL-17 cytokine concentration (primary murine T-cells; [7]): 0 pg/mL
- IL-21 cytokine concentration (primary murine T-cells; [7]): 0 pg/mL
- IL-22 cytokine concentration (primary murine T-cells; [7]): 0 pg/mL
- IL-27 cytokine concentration (primary murine T-cells; [7]): 0 pg/mL
- TNF-α cytokine concentration (primary murine T-cells; [7]): 0 pg/mL
- IL-1 cytokine concentration (primary murine T-cells; [8]): 0 pg/mL
- IL-4 cytokine concentration (primary murine T-cells; [8]): 129.47 pg/mL
- IL-5 cytokine concentration (primary murine T-cells; [8]): 350.49 pg/mL
- IL-6 cytokine concentration (primary murine T-cells; [8]): 338.28 pg/mL
- IL-10 cytokine concentration (primary murine T-cells; [8]): 155.42 pg/mL
- IL-13 cytokine concentration (primary murine T-cells; [8]): 4703.82 pg/mL
- IL-17 cytokine concentration (primary murine T-cells; [8]): 649.14 pg/mL
- IL-21 cytokine concentration (primary murine T-cells; [8]): 0 pg/mL
- IL-22 cytokine concentration (primary murine T-cells; [8]): 670.15 pg/mL
- IL-27 cytokine concentration (primary murine T-cells; [8]): 778.4 pg/mL
- TNF-α cytokine concentration (primary murine T-cells; [8]): 628.15 pg/mL
- IFN-γ* cytokine concentration (primary murine T-cells; [9]): 0 pg/mL
- IL-2* cytokine concentration (primary murine T-cells; [9]): 744.58 pg/mL
